# Measured values: patent publication US6700013B2, “Tricyclic fused heterocycle compounds, process for preparing the same and use thereof” (Nippon Suisan Kaisha, Ltd., priority 1999, dated 2004)
row,Compound,melting point
1,CCC1C(=O)c2cc(O)c(O)cc2Sc2ccc(-c3cccs3)cc21 (centres unmarked) [Example 162],225.7 to 227.4 °C
2,CSc1ccc2c(c1)Sc1cc(O)cc(O)c1C(=O)C2 [Example 19],182.3 to 184.4 °C
3,"Oc1cc(O)c2c(c1)Oc1cc(-c3ccccc3)ccc1CC2 [Example 7, 7-Phenyl-10,11-dihydrodibenz[b,f]oxepin-1,3-diol]",179.6 to 180.4 °C
4,CCC1(CC)C(=O)c2cc(O)c(O)cc2Sc2ccccc21 [Example 3],238 to 244.1 °C
5,CCC1C(=O)c2cc(O)c(O)cc2Sc2ccc(-c3ccccc3)cc21 (centres unmarked) [Example 163],225.7 to 227.3 °C
6,Cc1ccccc1-c1ccc2c(c1)Sc1cc(O)cc(O)c1C(=O)C2 [Example 89],178.1 to 198.3 °C
7,Oc1cc(O)c2c(c1)Oc1ccc(CCc3ccccc3)cc1CC2 [Example 113],151.8 to 152.7 °C
8,O=C(Cc1ccc2c(c1)CC(=O)c1c(O)cc(O)cc1O2)C1=CCCCC1 [Example 66],173.8 to 175.8 °C
9,CCC1C(=O)c2cc(O)c(O)cc2Sc2ccc(-c3cc4ccccc4o3)cc21 (centres unmarked) [Example 161],277.4 to 279.2 °C
10,O=C1Cc2cc(-c3cc4ccccc4o3)ccc2Oc2cc(O)cc(O)c21 [Example 94],268.4 to 268.5 °C
11,Oc1cc(O)c2c(c1)Oc1cc(CCc3ccccc3)ccc1CC2 [Example 108],169.1 to 174.9 °C
12,O=C1Cc2cc(-c3cccnc3)ccc2Oc2cc(O)cc(O)c21 [Example 55],293.9 to 300.1 °C
13,COc1cc(O)c2c(c1)Sc1ccc(Br)cc1CC2=O [Example 14],187.5 °C
14,O=C1Cc2cc(-c3ccco3)ccc2Sc2cc(O)cc(O)c21 [Example 84],243.5 to 248.4 °C (dec.)
15,CCC1=Cc2cc(O)c(O)cc2Sc2ccccc21 [Example 143],37.9 to 41.5 °C
16,C[Si](C)(C)CCc1ccc2c(c1)CCc1c(O)cc(O)cc1O2,125.2 to 126.9 °C
17,N#Cc1ccc2c(c1)CCc1c(O)cc(O)cc1O2 [Example 122],211.8 to 217.3 °C
18,CC(=O)c1ccc(-c2ccc3c(c2)CC(=O)c2c(O)cc(O)cc2O3)cc1 [Example 65],274 to 279 °C (dec.)
19,O=C1Cc2ccc(C#Cc3ccccc3)cc2Oc2cc(O)cc(O)c21 [Example 101],189.4 to 191.1 °C
20,CCCCc1ccc2c(c1)CC(=O)c1c(O)cc(O)cc1O2 [Example 50],105.6 to 106.8 °C
21,CCC1C(=O)c2cc(O)c(O)cc2Sc2cc(-c3cc4ccccc4o3)ccc21 (centres unmarked) [Example 168],293.2 °C (dec.)
22,Oc1cc2c(c(O)c1O)CCc1cc(-c3ccccc3)ccc1O2 [Example 125],175.1 to 178.3 °C
23,O=C1Cc2cc(-c3cccc(Cl)c3)ccc2Oc2cc(O)cc(O)c21 [Example 61],208.9 to 213.6 °C
24,O=[N+]([O-])c1cccc(-c2ccc3c(c2)CCc2c(O)cc(O)cc2O3)c1 [Example 120],199.6 to 201.8 °C
25,O=C1Cc2ccc(-c3cc4ccccc4o3)cc2Oc2cc(O)cc(O)c21 [Example 95],257.9 to 259.9 °C
26,CC1(C)C(=O)c2cc(O)c(O)cc2Sc2ccccc21 [Example 31],194.2 to 196.1 °C
27,Cc1ccc(-c2ccc3c(c2)CC(=O)c2c(O)cc(O)cc2O3)cc1 [Example 60],174 to 175 °C

row,Compound,melting point
1,Cc1ccc(-c2ccc3c(c2)Oc2cc(O)cc(O)c2CC3)cc1 [Example 112],195.1 to 197.1 °C
2,Oc1cc(O)c2c(c1)Oc1cc(-c3ccco3)ccc1CC2 [Example 115],198.6 to 201.1 °C
3,CCCC(=O)c1ccc2c(c1)CCc1c(O)cc(O)cc1O2 [Example 128],157.6 to 157.9 °C
4,O=C1Cc2ccc(Br)cc2Sc2cc(O)c(O)cc21 [Example 20],> 250 °C
5,O=C1Cc2cc(Cl)ccc2Sc2cc(O)cc(O)c21 [Example 15],217.9 to 221.6 °C
6,CCCCc1ccc2c(c1)CC(=O)c1c(O)cc(O)cc1S2 [Example 53],106.9 to 108.1 °C
7,Nc1cccc(-c2ccc3c(c2)CC(=O)c2c(O)cc(O)cc2O3)c1 [Example 59],> 300 °C (dec.)
8,Cc1ccccc1-c1ccc2c(c1)CC(=O)c1c(O)cc(O)cc1O2 [Example 62],91.8 to 94.8 °C
9,Oc1cc(O)c2c(c1)Sc1ccc(-c3ccco3)cc1CC2 [Example 127],213.7 to 214.7 °C
10,O=C1Cc2ccc(-c3cccs3)cc2Sc2cc(O)cc(O)c21 [Example 81],214.3 to 215.3 °C
11,CC1C(=O)c2c(O)cc(O)cc2Sc2ccccc21 (centres unmarked) [Example 39],152.1 to 153.4 °C
12,CCCCC(=O)c1ccc2c(c1)CCc1c(O)cc(O)cc1O2 [Example 130],119.8 to 121.7 °C
13,"O=C1Cc2ccc(I)cc2Sc2cc(O)cc(O)c21 [Example 8, 3-Iodo-7,9-dihydroxy-10,11-dihydrodibenzo[b,f]thiepin-10-one]",> 250 °C (dec.)
14,CC(=O)c1cc(-c2ccc3c(c2)CC(=O)c2c(O)cc(O)cc2O3)ccc1C [Example 67],228.4 to 230.8 °C
15,O=C1Cc2cc(-c3cccs3)ccc2Sc2cc(O)cc(O)c21 [Example 76],240.1 to 246.1 °C
16,CCC1C(=O)c2cc(O)c(O)cc2Sc2ccc(SC)cc21 (centres unmarked) [Example 36],199.6 to 200.5 °C
17,"CSc1ccc2c(c1)CCc1c(O)cc(O)cc1S2 [Example 2, 8-Methylthio-10,11-dihydrodibenzo[b,f]thiepin-1,3-diol]",161.6 to 163.9 °C
18,O=C1Cc2cc(-c3ccco3)ccc2Oc2cc(O)cc(O)c21 [Example 57],171 to 172.7 °C
19,CCCCCCc1ccc2c(c1)CCc1c(O)cc(O)cc1O2,135.6 to 137.6 °C
20,O=C1Cc2ccc(-c3cccc(C(F)(F)F)c3)cc2Oc2cc(O)cc(O)c21 [Example 73],183 to 184.7 °C
21,Nc1cccc(-c2ccc3c(c2)Oc2cc(O)cc(O)c2C(=O)C3)c1 [Example 74],228.3 to 230 °C
22,"O=C1Cc2ccc(-c3cccs3)cc2Oc2cc(O)cc(O)c21 [Example 5, 3-(2-Thiophene)-7,9-dihydroxy-10,11-dihydrodibenz[b,f]oxepin-10-one]",227.6 to 228.1 °C
23,CCC1C(=O)c2cc(O)c(O)cc2Sc2cc(-c3ccccc3C)ccc21 (centres unmarked) [Example 158],179.2 to 181.1 °C
24,Oc1cc(O)c2c(c1)Oc1ccc(-c3ccco3)cc1CC2 [Example 114],163.6 to 173.9 °C
25,O=C1Cc2cc(-c3ccc(O)cc3O)ccc2Oc2cc(O)cc(O)c21 [Example 77],212.6 to 215.7 °C
26,Oc1cc(O)c2c(c1)Oc1cc(-c3cccc(Cl)c3)ccc1CC2 [Example 118],137.1 to 143.2 °C
27,CCC1C(=O)c2cc(O)c(O)cc2Sc2cc(-c3cccc(Cl)c3)ccc21 (centres unmarked) [Example 157],175.5 to 176.8 °C

row,Compound,melting point
1,CCC1C(=O)c2cc(O)c(O)cc2Sc2cc(-c3cccc(N)c3)ccc21 (centres unmarked) [Example 176],245.5 to 246.4 °C
2,CCC1C(=O)c2cc(O)c(O)cc2Sc2cc(-c3ccc(-c4ccccc4)cc3)ccc21 (centres unmarked) [Example 171],> 300 °C
3,CCCC(=O)c1ccc2c(c1)CCc1c(O)cc(O)cc1S2 [Example 129],151.8 to 152.8 °C
4,CCCc1ccc2c(c1)CC(=O)c1c(O)cc(O)cc1O2 [Example 47],121 to 123 °C
5,O=C1Cc2cc(-c3cccs3)ccc2Oc2cc(O)cc(O)c21 [Example 58],199.9 to 201 °C
6,CCC1C(=O)c2c(O)cc(O)cc2Sc2ccccc21 (centres unmarked) [Example 38],175 to 177.5 °C
7,Oc1cc(O)c2c(c1)Sc1ccc(Cl)cc1CC2 [Example 26],181.1 to 184.9 °C
8,CCc1ccc2c(c1)CC(=O)c1c(O)cc(O)cc1S2 [Example 48],179.1 to 180.1 °C
9,O=C(c1ccc2c(c1)CCc1c(O)cc(O)cc1S2)C1CCC1 [Example 134],141.2 to 141.7 °C
10,O=C(c1ccc2c(c1)CCc1c(O)cc(O)cc1S2)C1CC1 [Example 135],142.2 to 143.5 °C
11,O=C1Cc2ccc(-c3cc4ccccc4o3)cc2Sc2cc(O)cc(O)c21 [Example 92],251.6 to 253.8 °C
12,O=C1Cc2cc(-c3cccc([N+](=O)[O-])c3)ccc2Oc2cc(O)cc(O)c21 [Example 56],244.3 to 250.7 °C
13,N#Cc1ccc2c(c1)CCc1c(O)cc(O)cc1S2 [Example 29],237.4 to 238.6 °C
14,CCC1C(=O)c2cc(O)c(O)cc2Sc2cc(Br)ccc21 (centres unmarked) [Example 45],227.2 to 229.9 °C
15,CCC1C(=O)c2cc(O)c(O)cc2Sc2cc(-c3ccccc3)ccc21 (centres unmarked) [Example 154],274.3 to 276.1 °C
16,O=C1Cc2cc(-c3ccccc3)ccc2Oc2cc(O)cc(O)c21 [Example 54],170.3 to 172 °C
17,CCC1C(=O)c2cc(O)c(O)cc2Sc2cc(-c3cccc(C(F)(F)F)c3)ccc21 (centres unmarked) [Example 156],109.7 to 111.9 °C
18,"CCC(=O)c1ccc2c(c1)CCc1c(O)cc(O)cc1O2 [Example 10, 8-Propionyl-10,11-dihydrodibenz[b,f]oxepin-1,3-diol]",159 to 160.3 °C
19,CCC1C(=O)c2cc(O)c(O)cc2Sc2cc(SC)ccc21 (centres unmarked) [Example 46],179.8 to 183 °C
20,CCC1C(=O)c2cc(O)c(O)cc2Sc2cc(-c3cccs3)ccc21 (centres unmarked) [Example 155],270.3 to 271.9 °C
21,CCC1C(=O)c2cc(O)c(O)cc2Sc2cc(-c3ccc(O)cc3)ccc21 (centres unmarked) [Example 177],155.4 to 159.4 °C
22,O=C1Cc2ccc(-c3ccc(O)cc3O)cc2Oc2cc(O)cc(O)c21 [Example 100],239.1 to 242.6 °C
23,O=C1c2c(O)cc(O)cc2Sc2ccccc2C1Cc1ccccc1 (centres unmarked) [Example 40],67.5 to 68.3 °C
24,O=C1Cc2ccc(-c3ccco3)cc2Oc2cc(O)cc(O)c21 [Example 70],249.6 to 250.8 °C
25,O=C(Cc1ccc2c(c1)Oc1cc(O)cc(O)c1C(=O)C2)C1=CCCCC1 [Example 68],195.5 to 195.8 °C
26,CCON=C(C)c1ccc2c(c1)CCc1c(O)cc(O)cc1S2 [Example 139],110.7 to 112.4 °C
